# pEC50, pKi: −log10 of the molar value.
# Columns and labels:
# [1] = molecular target: T1, 5-hydroxytryptamine receptor 1D (Homo sapiens, UniProt P28221); assay: Displacement of [3H]5-HT from human 5-hydroxytryptamine 1D receptor expressed in Chinese hamster ovary cells (CHO cells); format: cell-based
# [2] = molecular target: T1, 5-hydroxytryptamine receptor 1D; assay: Inhibition of [3H]5-HT binding to human 5-hydroxytryptamine 1D receptor expressed in CHO cells at 1 uM; format: cell-based
# [3] = molecular target: T1, 5-hydroxytryptamine receptor 1D; assay: Selectivity of compound to human 5-HT1D receptor to that of human 5-HT1B receptor
# [4] = Oral bioavailability in rat; format: ADME, organism-based; conditions: in vivo
# [5] = Half period in rat after intravenous administration; format: ADME, organism-based; conditions: in vivo
# [6] = molecular target: D(2) dopamine receptor (Homo sapiens) (UniProt P14416); assay: Inhibition of binding towards dopamine 2 receptor at 100 nM concentration
# [7] = molecular target: Adrenergic receptor alpha-1 (Homo sapiens) (UniProt P35348+P25100+P35368); assay: Inhibition of binding towards Alpha-1 adrenergic receptor at 100 nM concentration; format: protein assay
# [8] = species: Rattus norvegicus; assay: In vitro metabolic stability of compound after 30 min incubation in the presence of rat liver microsomes; format: functional
# [9] = molecular target: Muscarinic acetylcholine receptors; M1 & M2 (Homo sapiens) (UniProt P11229+P08172); assay: Inhibition of binding towards muscarinic (M1+M2) receptor at 100 nM concentration; format: protein assay
# [10] = molecular target: T1, 5-hydroxytryptamine receptor 1D; assay: Inhibition of binding towards 5-hydroxytryptamine 1D receptor at 100 nM concentration
# [11] = system: Rattus norvegicus; assay: Area under curve was determined after peroral administration in rat; format: ADME, organism-based; conditions: in vivo, po
# [12] = molecular target: T2, 5-hydroxytryptamine receptor 1A (Homo sapiens) (UniProt P08908); assay: Inhibition of binding towards 5-hydroxytryptamine 1A receptor at 100 nM concentration
# T2 sequence (whole entry): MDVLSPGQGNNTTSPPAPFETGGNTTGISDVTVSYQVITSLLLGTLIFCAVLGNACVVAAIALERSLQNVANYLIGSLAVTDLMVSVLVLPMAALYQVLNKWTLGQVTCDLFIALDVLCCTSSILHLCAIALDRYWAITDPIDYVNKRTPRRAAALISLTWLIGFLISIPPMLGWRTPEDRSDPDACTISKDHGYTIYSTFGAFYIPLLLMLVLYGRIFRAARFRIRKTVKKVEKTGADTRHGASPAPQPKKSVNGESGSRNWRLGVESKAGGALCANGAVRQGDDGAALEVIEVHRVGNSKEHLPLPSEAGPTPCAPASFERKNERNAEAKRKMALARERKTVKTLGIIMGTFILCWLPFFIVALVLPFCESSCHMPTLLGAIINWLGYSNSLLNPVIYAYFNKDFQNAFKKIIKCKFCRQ
# [13] = molecular target: D(3) dopamine receptor (Homo sapiens) (UniProt P35462); assay: Inhibition of binding towards dopamine 3 receptor at 100 nM concentration
# [14] = molecular target: 5-hydroxytryptamine receptor 6 (Homo sapiens) (UniProt P50406); assay: Inhibition of binding towards 5-hydroxytryptamine 6 receptor at 100 nM concentration
# [15] = Plasma clearance was determined in rat; format: ADME, organism-based
# [16] = molecular target: 5-hydroxytryptamine receptor 1B (Homo sapiens) (UniProt P28222); assay: Inhibition of binding towards 5-hydroxytryptamine 1B receptor at 100 nM concentration
# [17] = species: Homo sapiens; assay: In vitro metabolic stability of compound after 30 min incubation in the presence of human liver microsomes; format: functional
# [18] = molecular target: D(1B) dopamine receptor (Homo sapiens) (UniProt P21918); assay: Inhibition of binding towards dopamine 5 receptor at 100 nM concentration
# [19] = molecular target: T3, D(4) dopamine receptor (Homo sapiens) (UniProt P21917); assay: Inhibition of binding towards dopamine 4 receptor at 100 nM concentration
# T3 sequence (whole entry): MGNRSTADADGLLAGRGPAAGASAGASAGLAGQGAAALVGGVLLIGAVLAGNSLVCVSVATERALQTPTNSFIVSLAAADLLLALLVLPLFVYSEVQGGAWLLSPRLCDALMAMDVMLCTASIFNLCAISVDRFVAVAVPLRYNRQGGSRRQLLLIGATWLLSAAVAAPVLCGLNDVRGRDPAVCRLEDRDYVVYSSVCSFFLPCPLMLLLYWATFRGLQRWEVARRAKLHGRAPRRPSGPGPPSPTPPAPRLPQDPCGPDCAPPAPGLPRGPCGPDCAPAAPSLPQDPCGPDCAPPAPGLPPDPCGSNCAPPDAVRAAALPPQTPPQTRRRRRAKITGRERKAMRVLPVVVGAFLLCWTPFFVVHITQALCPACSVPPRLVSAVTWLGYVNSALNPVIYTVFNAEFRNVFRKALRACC
# [20] = molecular target: 5-hydroxytryptamine receptor 7 (Homo sapiens) (UniProt P34969); assay: Inhibition of binding towards 5-hydroxytryptamine 7 receptor at 100 nM concentration
# [21] = molecular target: T4, 5-hydroxytryptamine receptor 2C (Homo sapiens) (UniProt P28335); assay: Inhibition of binding towards 5-hydroxytryptamine 2C receptor at 100 nM concentration
# T4 sequence (whole entry): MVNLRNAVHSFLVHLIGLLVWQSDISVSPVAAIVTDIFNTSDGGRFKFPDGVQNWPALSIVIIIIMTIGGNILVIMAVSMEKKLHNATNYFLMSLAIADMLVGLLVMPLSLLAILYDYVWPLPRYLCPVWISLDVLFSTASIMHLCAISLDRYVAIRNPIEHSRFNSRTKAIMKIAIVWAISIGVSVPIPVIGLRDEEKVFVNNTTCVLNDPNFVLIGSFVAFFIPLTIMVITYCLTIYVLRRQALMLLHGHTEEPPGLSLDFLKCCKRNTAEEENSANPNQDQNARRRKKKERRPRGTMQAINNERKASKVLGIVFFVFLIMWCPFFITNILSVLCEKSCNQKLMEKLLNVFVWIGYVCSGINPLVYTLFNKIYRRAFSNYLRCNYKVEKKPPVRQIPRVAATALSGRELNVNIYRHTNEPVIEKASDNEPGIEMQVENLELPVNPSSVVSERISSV
# [22] = molecular target: 5-hydroxytryptamine receptor 2A (Homo sapiens) (UniProt P28223); assay: Inhibition of binding towards 5-hydroxytryptamine 2A receptor at 100 nM concentration
# [23] = Compound distribution in rat tissues was determined; format: ADME, organism-based; conditions: in vivo
# [24] = molecular target: D(1A) dopamine receptor (Homo sapiens) (UniProt P21728); assay: Inhibition of binding towards dopamine 1 receptor at 100 nM concentration
# [25] = Cmax in rat; format: ADME, organism-based; conditions: in vivo
# [26] = molecular target: T1, 5-hydroxytryptamine receptor 1D; assay: Ability to inhibit forskolin-stimulated adenylate cyclase activity in Chinese hamster ovary (CHO) stable cell lines expressing human 5-hydroxytryptamine 1D receptor; format: functional
# T1 sequence (P28221 whole entry): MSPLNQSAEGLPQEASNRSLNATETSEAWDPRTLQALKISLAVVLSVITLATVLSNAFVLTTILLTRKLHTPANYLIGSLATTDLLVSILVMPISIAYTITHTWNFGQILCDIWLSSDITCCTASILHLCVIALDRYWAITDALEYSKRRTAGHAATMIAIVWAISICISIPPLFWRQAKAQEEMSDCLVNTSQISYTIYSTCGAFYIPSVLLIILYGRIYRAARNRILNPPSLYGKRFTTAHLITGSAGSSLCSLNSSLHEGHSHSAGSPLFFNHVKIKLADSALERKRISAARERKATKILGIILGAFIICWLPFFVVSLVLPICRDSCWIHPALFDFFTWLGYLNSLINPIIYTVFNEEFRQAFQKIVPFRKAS
# Sequence of D(1B) dopamine receptor (Homo sapiens) (P21918 whole entry): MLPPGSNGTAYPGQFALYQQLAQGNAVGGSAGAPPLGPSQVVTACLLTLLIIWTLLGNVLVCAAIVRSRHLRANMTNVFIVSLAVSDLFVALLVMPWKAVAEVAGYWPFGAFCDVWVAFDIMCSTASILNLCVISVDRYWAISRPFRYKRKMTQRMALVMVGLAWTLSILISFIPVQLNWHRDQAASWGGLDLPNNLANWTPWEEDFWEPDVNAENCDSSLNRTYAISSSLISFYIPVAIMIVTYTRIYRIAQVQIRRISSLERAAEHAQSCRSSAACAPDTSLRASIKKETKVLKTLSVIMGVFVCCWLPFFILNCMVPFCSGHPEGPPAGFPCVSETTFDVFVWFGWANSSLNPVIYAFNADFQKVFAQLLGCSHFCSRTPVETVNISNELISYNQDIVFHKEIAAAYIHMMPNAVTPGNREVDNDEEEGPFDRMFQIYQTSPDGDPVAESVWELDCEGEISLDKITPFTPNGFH
# Sequence of D(2) dopamine receptor (Homo sapiens) (P14416 whole entry): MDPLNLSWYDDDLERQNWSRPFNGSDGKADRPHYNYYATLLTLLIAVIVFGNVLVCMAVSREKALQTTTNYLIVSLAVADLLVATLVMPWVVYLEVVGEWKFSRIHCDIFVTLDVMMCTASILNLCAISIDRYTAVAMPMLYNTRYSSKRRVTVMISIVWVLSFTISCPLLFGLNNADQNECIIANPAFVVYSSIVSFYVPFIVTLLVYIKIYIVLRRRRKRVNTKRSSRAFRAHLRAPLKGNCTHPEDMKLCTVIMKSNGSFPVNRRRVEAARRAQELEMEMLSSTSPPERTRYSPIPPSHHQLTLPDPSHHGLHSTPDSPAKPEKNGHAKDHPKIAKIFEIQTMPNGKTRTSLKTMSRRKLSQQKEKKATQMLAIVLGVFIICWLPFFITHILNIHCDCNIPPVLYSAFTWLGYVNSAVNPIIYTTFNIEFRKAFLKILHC
# Sequence of 5-hydroxytryptamine receptor 7 (Homo sapiens) (P34969 whole entry): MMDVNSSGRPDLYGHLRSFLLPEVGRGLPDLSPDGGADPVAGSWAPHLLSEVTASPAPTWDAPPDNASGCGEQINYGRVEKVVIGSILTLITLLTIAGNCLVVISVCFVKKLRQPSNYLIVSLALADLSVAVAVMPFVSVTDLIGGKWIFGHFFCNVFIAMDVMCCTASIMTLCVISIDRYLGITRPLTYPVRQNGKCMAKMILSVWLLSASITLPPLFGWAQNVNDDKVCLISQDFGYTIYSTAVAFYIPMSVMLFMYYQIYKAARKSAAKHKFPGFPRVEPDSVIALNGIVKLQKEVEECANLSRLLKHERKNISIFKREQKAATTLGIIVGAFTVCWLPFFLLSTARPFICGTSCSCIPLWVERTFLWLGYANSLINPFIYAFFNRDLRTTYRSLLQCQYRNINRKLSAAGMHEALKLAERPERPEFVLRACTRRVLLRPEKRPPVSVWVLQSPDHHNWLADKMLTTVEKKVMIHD
# Sequence of 5-hydroxytryptamine receptor 2A (Homo sapiens) (P28223 whole entry): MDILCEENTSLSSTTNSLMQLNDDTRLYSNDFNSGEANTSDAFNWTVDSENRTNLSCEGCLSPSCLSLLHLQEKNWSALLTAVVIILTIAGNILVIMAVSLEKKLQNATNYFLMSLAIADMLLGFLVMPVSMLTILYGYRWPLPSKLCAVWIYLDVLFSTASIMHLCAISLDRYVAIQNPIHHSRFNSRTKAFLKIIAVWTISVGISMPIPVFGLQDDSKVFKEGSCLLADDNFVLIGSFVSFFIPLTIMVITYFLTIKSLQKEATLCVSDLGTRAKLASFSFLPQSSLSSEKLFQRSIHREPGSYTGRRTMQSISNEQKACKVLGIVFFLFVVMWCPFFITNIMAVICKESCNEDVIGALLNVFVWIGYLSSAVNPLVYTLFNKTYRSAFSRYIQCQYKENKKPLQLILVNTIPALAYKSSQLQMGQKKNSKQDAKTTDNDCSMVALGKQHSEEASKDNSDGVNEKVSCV
# Sequence of D(1A) dopamine receptor (Homo sapiens) (P21728 whole entry): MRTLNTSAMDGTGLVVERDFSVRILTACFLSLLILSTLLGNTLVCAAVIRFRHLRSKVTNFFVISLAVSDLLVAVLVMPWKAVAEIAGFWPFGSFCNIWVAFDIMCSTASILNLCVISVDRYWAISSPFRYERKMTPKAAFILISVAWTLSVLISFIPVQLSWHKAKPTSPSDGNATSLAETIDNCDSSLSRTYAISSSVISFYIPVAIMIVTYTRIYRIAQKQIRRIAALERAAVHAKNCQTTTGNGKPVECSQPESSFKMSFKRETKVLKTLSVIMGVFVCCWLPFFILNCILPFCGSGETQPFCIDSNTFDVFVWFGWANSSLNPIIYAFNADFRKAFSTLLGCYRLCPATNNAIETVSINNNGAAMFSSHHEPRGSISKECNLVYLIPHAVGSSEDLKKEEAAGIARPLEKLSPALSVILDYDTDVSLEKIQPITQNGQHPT
# Sequence of 5-hydroxytryptamine receptor 6 (Homo sapiens) (P50406 whole entry): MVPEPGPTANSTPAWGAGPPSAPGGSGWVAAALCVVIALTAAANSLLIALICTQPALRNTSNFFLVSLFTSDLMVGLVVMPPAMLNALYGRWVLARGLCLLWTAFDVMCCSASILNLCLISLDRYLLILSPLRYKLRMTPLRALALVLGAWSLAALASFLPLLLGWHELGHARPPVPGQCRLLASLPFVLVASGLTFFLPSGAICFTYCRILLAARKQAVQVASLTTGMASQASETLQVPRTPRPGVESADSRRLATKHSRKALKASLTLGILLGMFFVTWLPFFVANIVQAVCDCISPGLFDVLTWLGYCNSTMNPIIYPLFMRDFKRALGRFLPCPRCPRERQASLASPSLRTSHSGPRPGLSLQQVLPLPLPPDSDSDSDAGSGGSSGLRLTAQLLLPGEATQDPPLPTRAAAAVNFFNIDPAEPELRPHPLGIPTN
# Sequence of 5-hydroxytryptamine receptor 1B (Homo sapiens) (P28222 whole entry): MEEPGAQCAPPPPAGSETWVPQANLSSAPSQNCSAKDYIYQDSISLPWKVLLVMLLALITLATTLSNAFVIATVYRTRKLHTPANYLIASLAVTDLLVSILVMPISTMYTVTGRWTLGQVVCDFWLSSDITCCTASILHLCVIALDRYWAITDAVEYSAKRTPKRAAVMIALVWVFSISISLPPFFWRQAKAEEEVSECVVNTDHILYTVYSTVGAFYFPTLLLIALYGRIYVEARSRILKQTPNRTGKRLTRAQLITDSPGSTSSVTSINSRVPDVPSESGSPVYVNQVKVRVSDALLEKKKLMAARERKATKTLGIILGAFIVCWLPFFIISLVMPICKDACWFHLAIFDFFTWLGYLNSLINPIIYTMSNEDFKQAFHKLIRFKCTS
# Sequence of D(3) dopamine receptor (Homo sapiens) (P35462 whole entry): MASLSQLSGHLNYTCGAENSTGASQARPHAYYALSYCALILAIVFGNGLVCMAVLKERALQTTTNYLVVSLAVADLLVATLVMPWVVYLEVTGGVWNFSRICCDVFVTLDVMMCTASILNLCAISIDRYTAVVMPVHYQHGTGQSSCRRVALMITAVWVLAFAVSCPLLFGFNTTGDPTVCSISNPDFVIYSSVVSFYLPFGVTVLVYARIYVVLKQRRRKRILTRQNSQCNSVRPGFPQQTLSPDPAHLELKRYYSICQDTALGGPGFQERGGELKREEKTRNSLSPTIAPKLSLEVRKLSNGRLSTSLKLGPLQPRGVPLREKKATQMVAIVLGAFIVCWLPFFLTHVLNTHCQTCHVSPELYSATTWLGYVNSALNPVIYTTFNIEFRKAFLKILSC
structure (smiles),measurement,setting,value
CN(C)CCn1ccc2ccc(-c3cccnc3)cc21,pKi,[1],8.85
same,inhibition,[2],98%
same,Selectivity,[3],17
CN(C)CCn1ccc2ccc(-c3ccc4ccccc4c3)cc21,pKi,[1],7.24
same,inhibition,[2],79%
same,Selectivity,[3],5.5
CN(C)CCn1ccc2ccc(C3(O)CCSCC3)cc21,bioavailability,[4],51.1%
same,half-life,[5],1.5 h
same,inhibition,[6],0%
same,inhibition,[7],1%
same,Remaining,[8],79%
same,pKi,[1],8.70
same,inhibition,[9],0%
same,inhibition,[10],96%
same,AUC,[11],21265 ng·mL/kg
same,inhibition,[12],27%
same,inhibition,[13],0%
same,inhibition,[14],0%
same,clearance,[15],74 mL/min/kg
same,inhibition,[2],99%
same,inhibition,[16],46%
same,Remaining,[17],70%
same,inhibition,[18],1%
same,inhibition,[19],2%
same,inhibition,[20],5%
same,Selectivity,[3],57
same,inhibition,[21],4%
same,inhibition,[22],0%
same,Vd,[23],8.61 L/kg
same,inhibition,[24],0%
same,Cmax,[25],538 ng/mL
same,pEC50,[26],9.52
CN(C)CCn1ccc2ccc(N3CCOCC3)cc21,inhibition,[2],85%
CN(C)CCn1ccc2ccc(C3=CCOCC3)cc21,pKi,[1],7.49
same,Selectivity,[3],28
CN(C)CCn1ccc2ccc(C3=CCN(C)CC3)cc21,inhibition,[2],84%
CN(C)CCn1ccc2ccc(C3(O)CCOCC3)cc21,pKi,[1],8.47
same,Selectivity,[3],48
CN(C)CCn1ccc2ccc(N3CCSCC3)cc21,inhibition,[2],88%
CN(C)CCn1ccc2ccc(C3(O)CCN(C)CC3)cc21,inhibition,[2],44%
CN(C)CCn1ccc2ccc(C3CCN(C)CC3)cc21,inhibition,[2],74%
CN(C)CCn1ccc2ccc(C3CCOCC3)cc21,pKi,[1],8.43
CN(C)CCn1ccc2ccc(C3=CCSCC3)cc21,pKi,[1],7.66
same,inhibition,[2],95%
same,Selectivity,[3],7.4
OC[C@H](NC1CCN(CCCc2c[nH]c3ccc(-n4cnnc4)cc23)CC1)c1ccc(F)cc1,pKi,[1],9.05
CN(C)CCn1ccc2ccc(-c3ccc(C(F)(F)F)cc3)cc21,inhibition,[2],86%
CNC(=O)c1ccc2c(c1)CCO[C@H]2CCN1CCN(c2ccc(C(N)=O)cc2)CC1,pKi,[1],8.34
CN(C)CCn1ccc2ccc(C3CCSCC3)cc21,pKi,[1],8.25
same,inhibition,[2],99%
same,Selectivity,[3],48
CN(C)CCn1ccc2ccc(-c3ccsc3)cc21,pKi,[1],8.14
same,inhibition,[2],99%
same,Selectivity,[3],22

# Reference: ChEMBL document CHEMBL1145755, “Design, synthesis and biological activity of novel dimethyl-[2-[6-substituted-indol-1-yl]-ethyl]-amine as potent, selective, and orally-bioavailable 5-HT(1D) agonists” (Bioorg Med Chem Lett, 2003)
